Patent publication US20160120863A1, “SLC2A TRANSPORTER INHIBITORS” (IOMET PHARMA LTD., priority 2013, published 2016)

Columns and labels:
Type in all cases: cell-based
human GLUT1 = target: T1, human GLUT1 (Homo sapiens, UniProt P11166); test: [3H]-deoxy-D-glucose uptake assay, GLUT1; details: [3H]-deoxy-D-glucose uptake in HEK293 cells stably expressing human GLUT1
T1 construct: expressed in transfected cells
T1 sequence (P11166 1-492): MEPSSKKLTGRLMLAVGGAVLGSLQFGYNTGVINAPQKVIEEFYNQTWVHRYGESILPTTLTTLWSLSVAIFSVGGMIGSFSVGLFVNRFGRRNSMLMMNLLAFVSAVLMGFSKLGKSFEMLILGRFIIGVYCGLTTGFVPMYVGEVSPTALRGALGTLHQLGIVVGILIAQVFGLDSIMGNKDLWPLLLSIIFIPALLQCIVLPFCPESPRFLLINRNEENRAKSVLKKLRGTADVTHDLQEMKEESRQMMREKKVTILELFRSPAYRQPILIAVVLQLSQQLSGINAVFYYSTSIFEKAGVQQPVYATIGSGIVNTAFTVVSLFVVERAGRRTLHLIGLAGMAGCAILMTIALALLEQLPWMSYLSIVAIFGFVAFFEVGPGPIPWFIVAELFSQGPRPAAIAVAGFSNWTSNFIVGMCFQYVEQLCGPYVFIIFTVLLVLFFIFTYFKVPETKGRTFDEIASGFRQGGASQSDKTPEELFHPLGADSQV
Summary of the method: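 HEK293 cells stably overexpressing human GLUT1 or GLUT2, seeded at 60,000 per well, treated with compounds in glucose-free uptake buffer for 30 min at 37 °C. [3H]-deoxy-D-glucose uptake quantified by scintillation counting after ice-cold PBS washes; IC50 determined.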

human GLUT2 = target: T2, human GLUT2 (Homo sapiens, UniProt P11168); test: [3H]-deoxy-D-glucose uptake assay, GLUT2; details: [3H]-deoxy-D-glucose uptake in HEK293 cells stably expressing human GLUT2
T2 construct: expressed in transfected cells
T2 sequence (P11168 1-524): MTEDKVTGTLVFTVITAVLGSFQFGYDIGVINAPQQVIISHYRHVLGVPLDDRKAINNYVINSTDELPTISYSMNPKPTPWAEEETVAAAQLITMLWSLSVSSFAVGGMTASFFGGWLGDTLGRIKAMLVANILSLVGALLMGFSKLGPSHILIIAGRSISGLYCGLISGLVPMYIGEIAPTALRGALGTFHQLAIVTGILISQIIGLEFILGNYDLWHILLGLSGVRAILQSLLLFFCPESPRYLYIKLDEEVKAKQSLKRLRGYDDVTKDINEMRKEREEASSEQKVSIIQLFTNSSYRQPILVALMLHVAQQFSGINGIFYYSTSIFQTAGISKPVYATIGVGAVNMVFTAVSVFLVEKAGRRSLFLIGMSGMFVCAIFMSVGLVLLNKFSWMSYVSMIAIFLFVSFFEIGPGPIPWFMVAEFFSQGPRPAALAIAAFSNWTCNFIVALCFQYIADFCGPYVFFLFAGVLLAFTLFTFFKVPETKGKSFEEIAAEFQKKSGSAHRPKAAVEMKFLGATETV
Procedure: (§1) HEK293 cells were engineered to stably express either human GLUT1, GLUT2, GLUt3 or GLUT4 by transfection with the pReceiver-Lv105 plasmid, containing either hGLUT1, hGLUT2, hGLUT3, or hGLUT4 gene constructs with lipofectamine 2000, hGLUT1- hGLUT2- hGLUT3- or hGLUT4-overexpressing polyclonal populations were isolated under purinomycin selective pressure (1 μg/ml) and maintained in Dulbecco's modified Eagle's medium supplemented with 1 μg/ml purinomycin+10% foetal bovine serum (FBS).
60,000 cells per well were seeded overnight into poly-D-lysine coasted 96-well plates. […] 90 μl of test compounds were added in glucose-free uptake buffer and cells were incubated at 37° C. for 30 min.
(§2) Cells were then washed twice with ice-cold PBS and 100 μl of Microscint-20 was added per well. Glucose uptake was quantified with a scintillation counter. The half maximal inhibitory concentration (IC50) (a measure of the effectiveness of the test compound in inhibiting glucose uptake) was determined.

human GLUT3 = target: T3, human GLUT3 (Homo sapiens, UniProt P11169); test: [3H]-deoxy-D-glucose uptake assay, GLUT3; details: [3H]-deoxy-D-glucose uptake in HEK293 cells stably expressing human GLUT3
T3 construct: expressed in transfected cells
T3 sequence (P11169 1-496): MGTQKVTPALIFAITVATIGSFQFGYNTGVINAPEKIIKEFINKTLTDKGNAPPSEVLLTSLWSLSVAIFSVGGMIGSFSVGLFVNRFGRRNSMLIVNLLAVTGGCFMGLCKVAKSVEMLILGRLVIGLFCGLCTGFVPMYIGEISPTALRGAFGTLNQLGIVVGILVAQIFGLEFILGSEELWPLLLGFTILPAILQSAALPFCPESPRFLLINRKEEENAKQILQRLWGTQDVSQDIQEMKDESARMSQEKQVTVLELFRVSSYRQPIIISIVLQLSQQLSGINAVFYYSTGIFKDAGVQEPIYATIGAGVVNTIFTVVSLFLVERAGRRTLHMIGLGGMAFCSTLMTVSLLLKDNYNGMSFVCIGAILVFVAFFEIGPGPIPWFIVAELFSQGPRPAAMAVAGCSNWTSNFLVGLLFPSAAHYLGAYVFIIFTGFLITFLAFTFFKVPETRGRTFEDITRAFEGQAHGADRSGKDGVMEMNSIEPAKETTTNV
Procedure: as §1
(§3) 60,000 cells per well were seeded overnight into poly-D-lysine coasted 96-well plates. Following media removal, cells were washed twice in warm glucose-free uptake buffer (25 mM HEPES/KOH pH 7.4, 125 mM NaCl, 4.8 mM KCl, 1.2 mM MgSO4, 1.2 mM CaCl2, 1.2 mM KH2PO4). 90 μl of test compounds were added in glucose-free uptake buffer and cells were incubated at 37° C. for 30 min. 10 μl of [3H]-deoxy-D-glucose (0.25 μCi, 125 μM final assay concentration) was then added per well in glucose-free uptake buffer and uptake was allowed to proceed at 37° C. for 30 min.
as §2

human GLUT4 = target: T4, human GLUT4 (Homo sapiens, UniProt P14672); test: [3H]-deoxy-D-glucose uptake assay, GLUT4; details: [3H]-deoxy-D-glucose uptake in HEK293 cells stably expressing human GLUT4
T4 construct: expressed in transfected cells
T4 sequence (P14672 1-509): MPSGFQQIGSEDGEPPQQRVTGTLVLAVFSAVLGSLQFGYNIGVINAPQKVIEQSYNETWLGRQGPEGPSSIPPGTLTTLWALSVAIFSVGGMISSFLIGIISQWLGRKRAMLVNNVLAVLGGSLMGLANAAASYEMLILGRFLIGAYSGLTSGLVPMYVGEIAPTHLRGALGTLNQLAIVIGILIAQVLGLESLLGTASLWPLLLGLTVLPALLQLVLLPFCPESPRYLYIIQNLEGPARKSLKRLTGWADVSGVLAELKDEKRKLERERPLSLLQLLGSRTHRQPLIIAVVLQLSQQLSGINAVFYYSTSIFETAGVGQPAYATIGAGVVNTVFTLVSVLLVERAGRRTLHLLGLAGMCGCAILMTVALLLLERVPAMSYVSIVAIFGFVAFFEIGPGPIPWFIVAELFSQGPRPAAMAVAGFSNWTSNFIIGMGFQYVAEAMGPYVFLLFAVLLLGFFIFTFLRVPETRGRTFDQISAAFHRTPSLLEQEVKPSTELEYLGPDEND
Procedure: as §1, §3, §2

Row | Compound | GLUT1 pIC50 (human GLUT1) | GLUT2 pIC50 (human GLUT2) | GLUT3 pIC50 (human GLUT3) | GLUT4 pIC50 (human GLUT4)
1 | O=C(c1cccc(F)c1)N1CCN(Cc2c(-c3ccc(Cl)cc3)nc3ccc(-c4ccccc4)cn23)CC1 [Compound 8] | +++ (pIC50 ≧ 6.00) | +++ (pIC50 ≧ 6.00) | +++ (pIC50 ≧ 6.00) | +++ (pIC50 ≧ 6.00)
2 | Fc1ccc(-c2ccc3nc(-c4ccc(Cl)cc4)c(CN4CCOCC4)n3c2)cc1 [Compound 79] | +− (pIC50 < 4.00) | +− (pIC50 < 4.00) | + (pIC50 4.00-4.99) | ++ (pIC50 5.00-5.99)
3 | Fc1ccccc1-c1ccc2nc(-c3ccc(Cl)cc3)c(CN3CCOCC3)n2c1 [Compound 80] | +++ (pIC50 ≧ 6.00) | – | +++ (pIC50 ≧ 6.00) | +++ (pIC50 ≧ 6.00)
4 | Clc1ccc(-c2nc3ccc(-c4ccccc4Cl)cn3c2CN2CCOCC2)cc1 [Compound 116] | +++ (pIC50 ≧ 6.00) | – | +++ (pIC50 ≧ 6.00) | +++ (pIC50 ≧ 6.00)
5 | Fc1cccc(F)c1-c1ccc2nc(-c3ccc(Cl)cc3)c(CN3CCOCC3)n2c1 [Compound 143] | +++ (pIC50 ≧ 6.00) | +++ (pIC50 ≧ 6.00) | +++ (pIC50 ≧ 6.00) | +++ (pIC50 ≧ 6.00)
6 | Clc1ccc(-c2nc3cnc(C4CC4)cn3c2CN2CCOCC2)cc1 [Compound 164] | +++ (pIC50 ≧ 6.00) | +++ (pIC50 ≧ 6.00) | +++ (pIC50 ≧ 6.00) | +++ (pIC50 ≧ 6.00)
7 | Cc1c(-c2ccccc2)ccc2nc(-c3ccc(Cl)cc3)c(CN3CCOCC3)n12 [Compound 170] | +++ (pIC50 ≧ 6.00) | – | +++ (pIC50 ≧ 6.00) | +++ (pIC50 ≧ 6.00)
8 | CC(=O)N1CCN(Cc2c(-c3ccc(Cl)cc3)nc3cnc(C4CC4)cn23)CC1 [Compound 187] | +++ (pIC50 ≧ 6.00) | +++ (pIC50 ≧ 6.00) | +++ (pIC50 ≧ 6.00) | +++ (pIC50 ≧ 6.00)
9 | CC(=O)N1CCN(Cc2c(-c3ccc(Cl)cc3)nc3ccc(-c4ccccc4C#N)cn23)CC1 [Compound 214] | +++ (pIC50 ≧ 6.00) | +++ (pIC50 ≧ 6.00) | +++ (pIC50 ≧ 6.00) | +++ (pIC50 ≧ 6.00)
10 | Fc1cccc(F)c1-c1cn2c(CN3CCOCC3)c(-c3ccc(Cl)cc3)nc2cn1 [Compound 238] | +++ (pIC50 ≧ 6.00) | +++ (pIC50 ≧ 6.00) | +++ (pIC50 ≧ 6.00) | +++ (pIC50 ≧ 6.00)
11 | CN(c1ccc2nc(-c3ccc(Cl)cc3)c(CN3CCOCC3)n2c1)S(C)(=O)=O [Compound 252] | +++ (pIC50 ≧ 6.00) | ++ (pIC50 5.00-5.99) | +++ (pIC50 ≧ 6.00) | +++ (pIC50 ≧ 6.00)
12 | O=C(c1ccncc1)N1CCN(Cc2c(-c3ccc(Cl)cc3)nc3cnc(C4CC4)cn23)CC1 [Compound 265] | +++ (pIC50 ≧ 6.00) | +++ (pIC50 ≧ 6.00) | +++ (pIC50 ≧ 6.00) | +++ (pIC50 ≧ 6.00)
13 | CC(=O)N1CCN(Cc2c(-c3ccc(Cl)cc3Cl)nc3cnc(C4CC4)cn23)CC1 [Compound 271] | +++ (pIC50 ≧ 6.00) | +++ (pIC50 ≧ 6.00) | +++ (pIC50 ≧ 6.00) | +++ (pIC50 ≧ 6.00)
14 | O=C(c1cnccn1)N1CCN(Cc2c(-c3ccc(Cl)cc3Cl)nc3cnc(C4CC4)cn23)CC1 [Compound 273] | +++ (pIC50 ≧ 6.00) | +++ (pIC50 ≧ 6.00) | +++ (pIC50 ≧ 6.00) | +++ (pIC50 ≧ 6.00)
15 | O=C(c1ccnnc1)N1CCN(Cc2c(-c3ccc(Cl)cc3Cl)nc3cnc(C4CC4)cn23)CC1 [Compound 296] | +++ (pIC50 ≧ 6.00) | +++ (pIC50 ≧ 6.00) | +++ (pIC50 ≧ 6.00) | +++ (pIC50 ≧ 6.00)
16 | O=C(C1CCOCC1)N1CCN(Cc2c(-c3ccc(Cl)cc3Cl)nc3cnc(C4CC4)cn23)CC1 [Compound 297] | +++ (pIC50 ≧ 6.00) | +++ (pIC50 ≧ 6.00) | +++ (pIC50 ≧ 6.00) | +++ (pIC50 ≧ 6.00)
17 | COCC(=O)N1CCN(Cc2c(-c3ccc(Cl)cc3)nc3ccc(N(C)S(C)(=O)=O)cn23)CC1 [Compound 303] | +++ (pIC50 ≧ 6.00) | ++ (pIC50 5.00-5.99) | +++ (pIC50 ≧ 6.00) | +++ (pIC50 ≧ 6.00)
